Assay results reported in US20100222349A1, “QUINOLINE DERIVATIVES USED TO TREAT INFLAMMATORY AND ALLERGIC DISEASES” (Glaxo Group Limited, priority 2007, published 2010).

Tests used:
human H1 receptor [1] = biological target: T1, human H1 receptor (Homo sapiens, UniProt P35367); assay: Histamine H1 functional antagonist assay: determination of functional pKi values (FLIPR); type: cell-based; conditions: CHO cells expressing human H1 receptor, histamine at EC80, read-out: average pKi (pKb) at H1 (converted)
T1 construct: expressed in transfected cells
T1 sequence (P35367 whole entry): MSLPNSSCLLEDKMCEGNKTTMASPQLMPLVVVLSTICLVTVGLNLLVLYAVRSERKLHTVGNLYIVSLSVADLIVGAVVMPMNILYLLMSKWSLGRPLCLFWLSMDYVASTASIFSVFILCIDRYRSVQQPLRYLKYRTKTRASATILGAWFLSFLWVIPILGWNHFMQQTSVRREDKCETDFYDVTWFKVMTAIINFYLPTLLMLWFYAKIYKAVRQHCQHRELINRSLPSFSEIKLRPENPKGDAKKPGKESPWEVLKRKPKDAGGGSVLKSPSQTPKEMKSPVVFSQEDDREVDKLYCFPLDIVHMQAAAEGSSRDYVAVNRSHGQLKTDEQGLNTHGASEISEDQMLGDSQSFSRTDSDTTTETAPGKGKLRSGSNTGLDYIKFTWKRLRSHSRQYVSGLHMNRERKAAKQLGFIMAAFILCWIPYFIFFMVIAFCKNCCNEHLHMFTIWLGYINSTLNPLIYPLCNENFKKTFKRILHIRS
How it was run: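 CHO cells stably expressing human H1 receptor, loaded with Fluo-4 for 60 min, then preincubated with compound 30 min at 37° C in Tyrodes buffer with probenecid, pH 7.40. Histamine added at EC80; suppression of calcium fluorescence on FLIPR gives functional affinity from concentration-effect curves.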

histamine H3 receptor = biological target: T2, histamine H3 receptor (Homo sapiens, UniProt Q9Y5N1); assay: Histamine H3 functional antagonist assay (GTPγS, membranes); type: biochemical; conditions: CHO K1 membranes, [35S]-GTPγS, histamine at EC80; read-out: average pKi (pKb) at H3 (converted)
T2 construct: expressed in transfected cells; host or cells: CHO K1 cells with pSwitch/pGeneH3 (GeneSwitch, mifepristone-induced), clone 3H3; membrane preparation
T2 sequence (Q9Y5N1 whole entry, species assumed): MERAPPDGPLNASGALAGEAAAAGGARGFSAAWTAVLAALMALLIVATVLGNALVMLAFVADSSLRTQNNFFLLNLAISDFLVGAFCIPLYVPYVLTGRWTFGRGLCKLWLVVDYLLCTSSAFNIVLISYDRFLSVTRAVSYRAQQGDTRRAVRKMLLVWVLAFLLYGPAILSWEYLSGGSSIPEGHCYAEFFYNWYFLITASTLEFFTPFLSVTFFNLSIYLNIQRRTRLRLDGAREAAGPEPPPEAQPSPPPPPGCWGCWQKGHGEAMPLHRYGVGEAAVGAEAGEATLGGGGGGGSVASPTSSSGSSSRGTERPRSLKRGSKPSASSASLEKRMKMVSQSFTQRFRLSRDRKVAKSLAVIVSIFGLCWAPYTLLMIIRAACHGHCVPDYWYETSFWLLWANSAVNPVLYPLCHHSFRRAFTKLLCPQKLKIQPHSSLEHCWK
How it was run: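 Membranes came from CHO K1 cells with mifepristone-inducible (10 nM, 18 h) human H3 receptor expression, clone 3H3. Test compounds in DMSO were combined with WGA polystyrene LeadSeeker SPA beads, membranes and GDP.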

human H1 receptor [2] = biological target: T1, human H1 receptor; assay: Histamine H1 functional antagonist assay: antagonist duration; type: cell-based; conditions: at one or more time points, after washout
Protocol: The human H1 receptor is cloned using known procedures described in the literature [Biochem. Biophys. Res. Commun., 201(2):894 (1994)]. Chinese hamster ovary (CHO) cells stably expressing the human H1 receptor are generated according to known procedures described in the literature [Br. J. Pharmacol., 117(6):1071 (1996)].
To determine the antagonist duration, cells are cultured overnight in non-coated black-walled clear bottom 96-well tissue culture plates, are washed with PBS and are incubated with a concentration of antagonist chosen to give an approximate DR in the range 30-300. Following the 30 min antagonist incubation period, the cells are washed two or three times with 200 μl of PBS and then 100 μl Tyrodes buffer is added to each well to initiate antagonist dissociation. Following incubation for predetermined times, typically 30-270 min at 37° C., the cells are then washed again with 200 μl PBS and are incubated with 100 μl Tyrodes buffer containing Brilliant Black, probenecid and Fluo-4 for 45 min at 37° C., as described above. After this period, the cells are challenged with histamine in the FLIPR™ as described above. The dose ratio at each time point is used to determine the fractional H1 receptor occupancy by the following equation: fractional receptor occupancy=(DR-1)/DR. The decrease in receptor occupancy over time approximates to a straight line and is analysed by linear regression. The slope of this straight line fit is used as an index of the dissociation rate of the antagonist. The dose ratios for antagonist treated cells and for antagonist treated and washed cells at each time point are used to calculate a relative dose ratio (rel DR) which is also used as an index of antagonist duration. Antagonists with long duration of action produce rel DR values close to 1, and antagonists with short duration of action produce rel DR values that approaches the dose ratio value obtained for antagonist treatment alone.

| Ki (human H1 receptor [1]) | Ki (histamine H3 receptor) | Compound | duration of action compared with azelastine (human H1 receptor [2]) |
| --- | --- | --- | --- |
| < 10 nM | > 316 nM | CCCCc1cc(OC2CCN(C[C@H]3CC[C@H](C(=O)N4CCCCC4)CC3)CC2)c2ncccc2c1 [Example 44, 6-Butyl-8-[(1-{[trans-4-(1-piperidinylcarbonyl)cyclohexyl]methyl}-4-piperidinyl)oxy]quinoline] | longer duration of action than azelastine |
| < 10 nM | > 316 nM | CCCCc1cc(OC2CCN(CCNC(=O)C(C)(C)C)CC2)c2ncccc2c1 [Example 72, N-(2-{4-[(6-butyl-8-quinolinyl)oxy]-1-piperidinyl}ethyl)-2,2-dimethyl propanamide] | longer duration of action than azelastine |
